# From US20260256796A1, “METHOD FOR TREATING FELINE CORONAVIRUS OR CALICIVIRUS INFECTION” (VIGONVITA LIFE SCIENCES CO., LTD., priority 2022, published 2026)
# Tests used:
# [1] = system: feline infectious peritonitis virus (FIPV); test: Inhibitory activity against feline coronavirus (FIPV) in CRFK cells, CellTiter-Glo readout; assay type: cell-based; conditions: for EC50: Alphacoronavirus 1, FIPV 0.1 MOI/well, 72 h, CellTiter-Glo; for inhibition of replication of FIPV in vitro: summary of Table 1
# Experimental: CRFK cells in a good growth state were seeded into a 96-well assay plate. When the cells grew to 80%-90% confluence, feline coronavirus (FIPV) (0.1 MOI/well) and varying concentrations of the test compounds were added to the assay plate. Meanwhile, a cell control (cells, no compound treatment or viral infection) and a virus control (cells infected with virus, no compound treatment) were set. The final concentration of DMSO in the culture solution was 1%. After incubation at 37° C. for 72 h, the cells were treated with a CellTiter-Glo luminescent cell viability assay reagent (Promega, Madison, WI, USA). The half-maximal effective concentration (EC50) values of the compounds for virus inhibition were calculated using the GraphPad prism 7 software.
# [2] = Pharmacokinetic evaluation in rats; assay type: in vivo; conditions: male, SD; for AUC(0-inf) / AUC(0-t) / Cmax: nucleoside (compound 4) in rat plasma
# Experimental: Male SD rats were fasted before the experiment (except for the intravenous group, which was not fasted), with free access to water, and were fed uniformly 2 h after administration. Compound 4 was administered by intravenous injection at a dose of 2.0 mg/kg (n=3) and administered intragastrically at a dose of 10.0 mg/kg (n=3); compound 53 was administered by intravenous injection at a dose of 5.0 mg/kg (n=3) and administered intragastrically at a dose of 20.0 mg/kg (n=3); the administration vehicle was 5% DMSO+5% ethanol+40% PEG300+50% saline. After the administration, 0.2-mL blood samples were collected via the jugular vein at different time points. Each blood sample was then placed into a heparin sodium anticoagulation tube, gently mixed uniformly, and centrifuged at 2000 g for 10 min. Plasma was isolated and frozen in a refrigerator at −70° C. for later analysis. The concentration of nucleoside (compound 4) in the plasma was determined by the LC-MS-MS method, and pharmacokinetic parameters were calculated.
SMILES,EC50 [1],inhibition of replication of FIPV in vitro [1],further results
[2H]c1cc([C@]2(C#N)O[C@H](COC(C)=O)[C@@H](OC(C)=O)[C@H]2OC(C)=O)n2ncnc(N)c12 [Compound 40],1.05 µM,–,–
[2H]c1cc([C@]2(C#N)O[C@H](COC(C)=O)[C@@H](O)[C@H]2O)n2ncnc(N)c12 [Compound 52],1.3 µM,–,–
[2H]c1cc([C@]2(C#N)O[C@H](COC(=O)CC)[C@@H](O)[C@H]2O)n2ncnc(N)c12 [Compound 29],1.1 µM,–,–
[2H]c1cc([C@]2(C#N)O[C@H](COC(=O)C(C)C)[C@@H](OC(=O)C(C)C)[C@H]2OC(=O)C(C)C)n2ncnc(N)c12 [Compound 42],1.63 µM,–,–
N#C[C@@]1(c2ccc3c(N)ncnn23)O[C@H](CO)[C@H]2OC(=O)O[C@H]21 [Compound 25],2.75 µM,–,–
CC(C)C(=O)O[C@H]1[C@@H](O)[C@](C#N)(c2ccc3c(N)ncnn23)O[C@@H]1CO [Compound 20],0.69 µM,could inhibit the replication,–
CC(C)C(=O)OC[C@H]1O[C@@](C#N)(c2ccc3c(N)ncnn23)[C@H](O)[C@@H]1O [Compound 6],0.65 µM,could inhibit the replication,–
CC(C)C(=O)OC[C@H]1O[C@@](C#N)(c2ccc3c(N)ncnn23)[C@H](OC(=O)C(C)C)[C@@H]1OC(=O)C(C)C [Compound 27],1.59 µM,–,–
[2H]c1cc([C@]2(C#N)O[C@H](COC(=O)C(CC)CC)[C@@H](O)[C@H]2O)n2ncnc(N)c12 [Compound 32],43.8 µM,–,–
"N#C[C@@]1(c2ccc3c(N)ncnn23)O[C@H](CO)[C@@H](O)[C@H]1O [GS-441524, reference compound]",2.29 µM,–,–
[2H]c1cc([C@]2(C#N)O[C@H](CO)[C@@H](O)[C@H]2O)n2ncnc(N)c12 [Compound 4],2.34 µM,–,"bioavailability ([2]; plasma, rat, nucleoside (compound 4) measured, po 10.0 mg/kg vs iv 2.0 mg/kg, read-out: F (oral bioavailability)): 21.7%; AUC(0-inf) ([2]; iv 2.0 mg/kg): 1790 ng·h/mL; AUC(0-t) ([2]; iv 2.0 mg/kg): 1720 ng·h/mL; Cmax ([2]; iv 2.0 mg/kg): 1630 ng/mL; AUC(0-inf) ([2]; po 10.0 mg/kg): 1910 ng·h/mL; AUC(0-t) ([2]; po 10.0 mg/kg): 1870 ng·h/mL; Cmax ([2]; po 10.0 mg/kg): 246 ng/mL"
[2H]c1cc([C@]2(C#N)O[C@H](COC(=O)C(C)C)[C@H]3OC(=O)O[C@H]32)n2ncnc(N)c12 [Compound 53],0.66 µM,could inhibit the replication,–
[2H]c1cc([C@]2(C#N)O[C@H](COC(=O)C(C)C)[C@@H](O)[C@H]2O)n2ncnc(N)c12 [Compound 11],0.69 µM,could inhibit the replication,–
